Laboratory results reported in ChEMBL document CHEMBL5214963, “Development of a penetratin-conjugated stapled peptide that inhibits Wnt/β-catenin signaling” (Bioorg Med Chem, 2022).
The source made the active and inactive calls. No cut-off for these calls is given here. *1 amine or outer side, *2 acyl side, *3 side chain or, on linkers, in order; H or OH if unused. Where a SMILES comes first, the peptide text is derived from it. Bridges are numbered along the chain shown (N, C = ends). [ ]: non-standard residue; d: D form. Nle(6-ylidene) = O=C([C@H](CCCC=[*:3])N[*:1])[*:2]; Nle = CCCC[C@H](N)C(=O)O; βAla = NCCC(=O)O

Tests used:
A549 [1] = assay: Cytotoxicity against human A549 cells assessed as cell growth inhibition at 20 uM incubated for 24 hrs by CellTiter-Glo reagent based microplate reader analysis; assay type: functional
DLD-1 [2] = assay: Cytotoxicity against human DLD-1 cells assessed as reduction in cell growth at 20 uM incubated for 24 hrs by CellTiter-Glo reagent based microplate reader analysis; assay type: functional
A549 [3] = assay: Cytotoxicity against human A549 cells assessed as cell growth inhibition at 20 uM incubated for 5 days by CellTiter-Glo reagent based microplate reader analysis; assay type: functional; details: time 5.0 day
DLD-1 [4] = assay: Cytotoxicity against human DLD-1 cells assessed as cell growth inhibition at 20 uM incubated for 5 days by CellTiter-Glo reagent based microplate reader analysis; assay type: functional; details: time 5.0 day
HEK293 [5] = assay: (§1) Inhibition of Wnt/beta-catenin transactivation signalling in Wnt3a stimulated human HEK293 cells harbouring TCF/LEF luciferase reporter gene assessed as inhibition TCF-beta-catenin complex formation by measuring luminescence level at 20 uM preincubated for 15 hrs followed by recombinant mouse Wnt-3a addition and measured after 5 hrs by luminescence based microplate reader analysis; assay type: cell-based; details: time 20.0 hrs
HEK293 [6] = assay: as §1, with “level at 0.1 to 20 uM” for “level at 20 uM”; assay type: cell-based; details: dose 0.1-20 µM, time 20.0 hrs, DDE = dose-dependent effect
[7] = Stability of the compound in proteinase K (unknown origin) assessed as remaining parent compound at 100 uM measured after 480 mins by HPLC analysis; assay type: ADME; details: read-out: Stability
HEK293 [8] = assay: as §1, with “50” for “20”; assay type: cell-based; details: time 20.0 hrs

CCCC[C@H](NC(=O)[C@@H]1CCC/C=C\CCC[C@H](NC[C@H](C)NC(=O)[C@H](C)NC(=O)CCNC(=O)[C@H](CCC(N)=O)NC(=O)[C@@H]2CCCN2C(=O)[C@@H]2CCCN2C(=O)[C@H](CCCNC(=N)N)NC(=O)[C@H](CCCNC(=N)N)NC(=O)[C@H](CCCNC(=N)N)NC(=O)[C@H](CCC(N)=O)NC(=O)[C@H](CCCNC(=N)N)NC(=O)[C@H](CCCNC(=N)N)NC(=O)[C@H](CCCCN)NC(=O)[C@H](CCCCN)NC(=O)[C@H](CCCNC(=N)N)NC(=O)CN)C(=O)N[C@@H](CC(C)C)C(=O)N[C@@H](CC(=O)O)C(=O)N[C@@H](Cc2ccc(O)cc2)C(=O)N1)C(=O)N[C@@H](CS)C(=O)N[C@@H](CC(N)=O)C(=O)N[C@@H](Cc1ccc(O)cc1)C(=O)O
Activity (A549 [1]): Active
Activity (DLD-1 [2]): Active

CC[C@H](C)[C@@H]1NC(=O)[C@@H](NC(=O)[C@H](CCCNC(=N)N)NC(=O)[C@@H]2CCCN2C(=O)[C@H](Cc2c[nH]c3ccccc23)NC(=O)[C@H](CCCNC(=N)N)NC(=O)[C@H](CCCNC(=N)N)NC(C)=O)CCC/C=C\CCC[C@@H](C(=O)N[C@@H](Cc2cnc[nH]2)C(=O)N[C@H](C(=O)N[C@@H](CCCNC(=N)N)C(=O)N[C@@H](CCCNC(=N)N)C(=O)N[C@H](C(=O)N[C@@H](Cc2c[nH]c3ccccc23)C(=O)N[C@@H](CCCNC(=N)N)C(=O)O)C(C)C)C(C)C)NC(=O)[C@H](CC(=O)O)NC(=O)[C@H](CC(C)C)NC1=O (Ac-RRWPR[Nle(6-ylidene)]ILD[Nle(6-ylidene)]HVRRVWR-OH; staple (Z) 6-10)
Activity (A549 [3]): Active
Activity (DLD-1 [4]): Active
inhibition (HEK293 [5]): Active

CCCC[C@H](NC(=O)[C@@H]1CCC/C=C\CCC[C@H](NC(=O)[C@H](C)NC(=O)[C@H](C)NC(=O)CCNC(=O)[C@H](CCCCN)NC(=O)[C@H](CCCCN)NC(=O)[C@H](Cc2c[nH]c3ccccc23)NC(=O)[C@H](CCCCN)NC(=O)[C@H](CCSC)NC(=O)[C@H](CCCNC(=N)N)NC(=O)[C@H](CCCNC(=N)N)NC(=O)[C@H](CC(N)=O)NC(=O)[C@H](CCC(N)=O)NC(=O)[C@H](Cc2ccccc2)NC(=O)[C@H](Cc2c[nH]c3ccccc23)NC(=O)[C@@H](NC(=O)[C@H](CCCCN)NC(=O)[C@@H](NC(=O)[C@H](CCC(N)=O)NC(=O)[C@@H](N)CCCNC(=N)N)[C@@H](C)CC)[C@@H](C)CC)C(=O)N[C@@H](CC(C)C)C(=O)N[C@@H](CC(=O)O)C(=O)N[C@@H](Cc2ccc(O)cc2)C(=O)N1)C(=O)N[C@@H](CS)C(=O)N[C@@H](CC(N)=O)C(=O)N[C@@H](Cc1ccc(O)cc1)C(=O)O
Activity (A549 [1]): Active
Activity (DLD-1 [2]): Active
Activity (A549 [3]): Active
Activity (DLD-1 [4]): Active
inhibition (HEK293 [6]): Dde

CC(C)C[C@H](NC(=O)[C@H](C)NC(=O)[C@H](C)NC(=O)CCN)C(=O)N[C@@H](CC(C)C)C(=O)N[C@@H](CC(=O)O)C(=O)N[C@@H](Cc1ccc(O)cc1)C(=O)N[C@H](C(=O)N[C@@H](CS)C(=O)N[C@@H](CC(N)=O)C(=O)N[C@@H](Cc1ccc(O)cc1)C(=O)O)[C@@H](C)O (H-[βAla]AALLDYTCNY-OH)
remaining at 8 h, 100 µM [7]: 0.1%

CCCC[C@H](NC(=O)[C@@H]1CCC/C=C\CCC[C@H](NC(=O)[C@H](C)NC(=O)[C@H](C)NC(=O)CCN)C(=O)N[C@@H](CC(C)C)C(=O)N[C@@H](CC(=O)O)C(=O)N[C@@H](Cc2ccc(O)cc2)C(=O)N1)C(=O)N[C@@H](CS)C(=O)N[C@@H](CC(N)=O)C(=O)N[C@@H](Cc1ccc(O)cc1)C(=O)O (H-[βAla]AA[Nle(6-ylidene)]LDY[Nle(6-ylidene)][Nle]CNY-OH; staple (Z) 4-8)
remaining at 8 h, 100 µM [7]: 65%

CCCC[C@H](NC(=O)[C@@H]1CCC/C=C\CCC[C@H](NC(=O)[C@H](C)NC(=O)[C@H](C)NC(=O)CCNC(=O)[C@H](CCCNC(=N)N)NC(=O)[C@H](CCCNC(=N)N)NC(=O)[C@H](CCCNC(=N)N)NC(=O)[C@H](CCCNC(=N)N)NC(=O)[C@H](CCCNC(=N)N)NC(=O)[C@H](CCCNC(=N)N)NC(=O)[C@H](CCCNC(=N)N)NC(=O)[C@@H](N)CCCNC(=N)N)C(=O)N[C@@H](CC(C)C)C(=O)N[C@@H](CC(=O)O)C(=O)N[C@@H](Cc2ccc(O)cc2)C(=O)N1)C(=O)N[C@@H](CS)C(=O)N[C@@H](CC(N)=O)C(=O)N[C@@H](Cc1ccc(O)cc1)C(=O)O
Activity (A549 [1]): Active
Activity (DLD-1 [2]): Active

O=C(Nc1cccc2cccnc12)c1ccc(N2C(=O)[C@@H]3[C@H](C2=O)[C@@H]2C=C[C@H]3C2)cc1
inhibition (HEK293 [8]): Active
